In PubChem BioAssay (NCI):
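Step 1: Grow cells in 96-well plates. Step 2: Expose to compound for 48 hours at 5 concentrations. Step 3: Interpolate endpoints linearly; if unreached, use highest concentration. GI50 is the concentration that inhibits growth by half. TGI marks complete inhibition of growth.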

How the values were obtained:
Test in all cases: NCI-60 cell line screen, 48 h
[1] = test system: M19-MEL melanoma
[2] = test system: DMS 273 small cell lung
[3] = test system: RXF-631 renal
[4] = test system: DU-145 prostate
[5] = test system: MDA-N
[6] = test system: NCI/ADR-RES ovarian
[7] = test system: MCF7 breast
[8] = test system: MDA-MB-231 breast
[9] = test system: MDA-MB-435

Structure (SMILES) | TGI [1] [µM] | TGI [2] [µM] | TGI [3] [µM] | also measured
O=C1CCCCC/C=C2/CC[C@H](Sc3ccccc3)[C@@H]12 | > 100 | > 100 |  | 
CCCOc1ccc(/C(Cl)=C(\C=O)c2ccc(OC)c(OC)c2)cc1OCCC | 31.1 | 40.1 |  | 
NC(=S)N/N=C(/CC(=O)c1ccc([N+](=O)[O-])cc1)C(=O)Nc1ncc([N+](=O)[O-])s1 | > 100 |  | > 100 | 
COc1cccc(Nc2nc(NNC(=O)Cc3ccccc3)nc(NNC(=O)c3ccncc3)n2)c1 |  |  |  | GI50 [4]: > 100 µM; TGI [4]: > 100 µM; GI50 [5]: > 100 µM; TGI [5]: > 100 µM; GI50 [6]: > 100 µM; TGI [6]: > 100 µM; GI50 [7]: > 100 µM; TGI [7]: > 100 µM; GI50 [8]: > 100 µM; TGI [8]: > 100 µM; TGI [9]: > 100 µM
COc1ccc2c(=O)c([Se]c3coc4cc(OC)ccc4c3=O)coc2c1 | > 100 | > 100 |  | 
Nc1ccc2c(c1)C(=O)c1ccc(F)cc1-2 |  |  |  | TGI [4]: > 100 µM; TGI [5]: > 100 µM; TGI [6]: > 100 µM; TGI [7]: > 100 µM; TGI [8]: > 100 µM; TGI [9]: > 100 µM
CN(C)CCNC(=O)c1cccc2nc3ccc4ccccc4c3nc12 | 0.224 | 0.246 |  | 
O=c1[nH]c(=S)[nH]c2c1sc(=S)n2-c1ccccc1 | > 100 | > 100 |  | 
CC(=O)CC(=O)CCCC(=O)Nc1ccc(Cl)cc1C | > 100 | > 100 | > 100 | 
OC(c1ccccc1)(c1ccccc1)c1ccccn1 | > 100 | > 100 | > 100 | 
N=C(N)n1ncc(Cl)c(Cl)c1=O | 3.77 | 4.78 | 3.36 | 
C[N+](C)(C)CCOP(=O)(O)OP(=O)([O-])OCC1CCC(n2ccc(N)nc2=O)O1 (stereo not drawn) |  |  |  | TGI [4]: > 100 µM; TGI [5]: > 100 µM; TGI [6]: > 100 µM; TGI [7]: > 100 µM; TGI [8]: > 100 µM; TGI [9]: > 100 µM
CC(=O)OC1(C#N)CC2OC1C1C2N1C(=O)c1ccccc1 (stereo not drawn) | > 100 |  | > 100 | 
COC(=O)CCC(NC(=S)N/N=C(\C)c1ccccn1)C(=O)OC (stereo not drawn) | > 100 |  | > 100 | 
CCOC(=O)CC(=O)ON(C)C(=O)Cc1ccccc1 | > 100 |  | > 100 | 
CCOC(=O)C1=C(Nc2ccccc2)OC/C1=N\NC(=O)Cc1ccccc1 | > 50 |  | > 50 | 
O=C(CCc1nnc2s/c(=C\c3ccccc3)c(=O)n12)Nc1cc(Cl)ccc1Cl | > 100 | > 100 | > 100 | 
O=C(c1cc2ccccc2[nH]1)C(O)(c1cc2ccccc2[nH]1)c1cc2ccccc2[nH]1 |  | > 246 | > 246 | 
O=C(NCCCN1CCN(CCCNC(=O)c2cnc3ccccc3n2)CC1)c1cnc2ccccc2n1 | > 100 | > 100 | > 100 | 
CCc1cccc(C(C)CC)c1N=C(NC(=O)c1ccccc1C(=O)NC(=Nc1c(CC)cccc1C(C)CC)SC)SC (stereo not drawn) | > 100 |  | > 100 | 
C/C(=N\NC(=O)CC(=O)Nc1ccc(C)cc1)c1cc2ccccc2oc1=O | > 100 | > 100 |  | 
CC(C)c1cc(C(C)C)c(S(=O)(=O)NN)c(C(C)C)c1 | > 100 | > 100 |  | 
COc1ccc(/C=C/c2cc(OC)c(O[Si](C)(C)C(C)(C)C)c(OC)c2)cc1 | > 100 | > 100 | > 100 | 
Cc1c2ccccc2c(C)c2c3c(ccc12)C(=O)C=CC3=O | 35.8 | > 100 |  | 
NC(=O)c1ccccc1NC(=O)C(=O)C(C(=O)c1ccc2ccccc2c1)C1OC(=O)c2ccccc21 (stereo not drawn) | 25.5 | 38.5 |  | 
Clc1ccc(-c2nc3c(-c4ccc(Cl)cc4)nc(-c4ccccc4)cn3c2-c2ccc(Cl)cc2)cc1 |  |  |  | GI50 [4]: > 50 µM; TGI [4]: > 50 µM; GI50 [6]: > 50 µM; TGI [6]: > 50 µM; GI50 [7]: > 50 µM; TGI [7]: > 50 µM; GI50 [8]: 27.9 µM; TGI [8]: > 50 µM; GI50 [9]: > 50 µM; TGI [9]: > 50 µM
